Source: ChEMBL document CHEMBL1201862, “PubChem BioAssay data set” (2004)
Active and inactive are the calls of the source. Rule as the data show it: actives have a measured IC50 and inactives only a lower limit.

Molecular target: Envelope glycoprotein gp160 (Human immunodeficiency virus 1, UniProt Q6QLK5)
Experiment: cell-free HIV fusion peptide-binding blockers – biochemical, uHTS, fluorescence dequenching, […] (AID 1986)

Envelope glycoprotein gp160, sequence (Q6QLK5 whole entry, the tested form may be a part): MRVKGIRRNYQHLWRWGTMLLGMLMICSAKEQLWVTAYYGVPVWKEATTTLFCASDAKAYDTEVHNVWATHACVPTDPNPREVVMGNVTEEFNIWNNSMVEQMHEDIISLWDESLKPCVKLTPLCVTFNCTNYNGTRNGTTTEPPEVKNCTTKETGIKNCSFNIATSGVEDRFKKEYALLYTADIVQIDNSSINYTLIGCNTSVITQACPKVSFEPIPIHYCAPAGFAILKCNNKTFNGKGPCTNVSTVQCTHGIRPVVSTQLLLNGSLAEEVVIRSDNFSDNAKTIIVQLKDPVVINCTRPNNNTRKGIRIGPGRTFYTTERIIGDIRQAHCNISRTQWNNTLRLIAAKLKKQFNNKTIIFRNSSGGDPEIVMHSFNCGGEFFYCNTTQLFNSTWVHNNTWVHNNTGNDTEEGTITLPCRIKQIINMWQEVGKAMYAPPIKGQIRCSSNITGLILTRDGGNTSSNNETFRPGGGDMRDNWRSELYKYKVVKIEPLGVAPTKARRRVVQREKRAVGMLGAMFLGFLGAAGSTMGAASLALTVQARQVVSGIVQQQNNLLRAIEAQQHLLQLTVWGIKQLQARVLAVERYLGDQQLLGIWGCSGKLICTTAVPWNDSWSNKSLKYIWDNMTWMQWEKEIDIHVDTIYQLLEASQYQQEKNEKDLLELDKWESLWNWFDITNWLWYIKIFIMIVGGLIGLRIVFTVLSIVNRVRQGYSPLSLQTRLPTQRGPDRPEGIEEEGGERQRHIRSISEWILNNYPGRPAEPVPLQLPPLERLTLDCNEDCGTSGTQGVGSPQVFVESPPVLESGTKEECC

Row | Structure (SMILES) | IC50
1 | C=CC#CC[N+]1(CC#Cc2ccccc2)CCOCC1 | 22.5 µM (active)
2 | Cc1ccc(-c2nc(SCC(=O)Nc3ccccc3OC(F)F)c3c(C)c(C(=O)O)sc3n2)cc1 | 15.1 µM (active)
3 | O=C(O)c1cccc(N/N=C/c2cc(Br)cc(Br)c2O)c1 | 17.1 µM (active)
